Tests used:
[1] = tested on: MLLr cell lines; test: Cell growth (cell counting after trypan blue exclusion) of MLLr cell lines; format: cell-based, human; conditions: 50 nM or 100 nM PR-957, 96 hours, vs DMSO; FIG. 1G left
Description: (§1) MOLM-13, MONO-MAC-6, THP-1, KOPN-8, ML-2, MV-4;11, OCI-AML3, U-937, KASUMI-1, K-562, HL-60 and LAMA-84 cells were purchased from DSMZ (Braunschweig, Germany). Cas9-Blast cell lines are subclones of the respective cell lines and stably transduced with lentiCas9-Blast (Addgene plasmid #52962). Cells were cultured in RPMI 1640 medium (Thermo Fisher Scientific, Waltham, MA, USA) supplemented with 10-20% FBS (Thermo Fisher Scientific) in a humid atmosphere of 5% CO2 at 37° C. MV4;11 cells harboring Menin-inhibitor resistance mediating mutations of Menin were generated by CRISPR-Cas9 technology.
(§2) Cellular proliferation was assessed by cell counting after trypan blue exclusion. Apoptosis of cells was measured by flow cytometry using Annexin V/SYTOX® Blue staining following the manufacturer's instruction.

[2] = tested on: AML1-ETO; test: Methylcellulose colony-forming assay, AML1-ETO transduced murine cells; format: cell-based, mouse; conditions: 100 nM or 200 nM; FIG. 2A right panel
Description: (§3) Primary mouse bone marrow (BM) cells (transduced with MLL-AF9/KRAS, MLL-AF6, or AML1-ETO/KRAS) were seeded in MethoCult GF M3434 (StemCell Technologies) at a concentration of 1×10^3 cells/replicate. Colonies propagated in culture were scored at day 8. For re-plating of primary mouse BM cells, colonies were harvested from the methylcellulose medium, washed with PBS/1% FBS and seeded again at a concentration of 1×10^3 cells/replicate. MOLM-13 or ML-2 cells infected with either control or PSMB8/LMP7-specific shRNAs were plated at a concentration of 1×10^3 cells in MethoCult H4230 (StemCell Technologies) supplemented with 20% FBS and colony numbers were counted on day 10-14.

[3] = tested on: leukemic stem cell (LSC), MLL-AF9; test: Limiting dilution assay of MLL-AF9 leukemic bone marrow cells treated ex vivo (ELDA); format: in vivo, mouse; conditions: 200 nM PR-957 ex vivo 48 hours
[4] = tested on: non-MLLr cell lines; test: Cell growth (cell counting after trypan blue exclusion) of non-MLLr cell lines; format: cell-based, human; conditions: 50 nM or 100 nM PR-957, 96 hours, vs DMSO; FIG. 1G right
Description: as §1, §2

[5] = tested on: MLL-rearranged murine leukemic cells; test: Methylcellulose colony-forming assay, MLL-rearranged murine leukemic cells; format: cell-based, mouse
Description: as §3

[6] = tested on: normal hematopoietic cells; test: Normal hematopoiesis: competitive transplantation after in vivo PR-957 treatment; parameters: species or system mouse
[7] = tested on: MOLM-13 and ML-2 cells; test: Global transcriptome analysis by RNA-sequencing; format: cell-based, human; conditions: 100 nM PR-957, 72 hours, FIG. 3A
From the text: Cells were harvested and resuspended in TRIzol™, and RNA was extracted using the TRIzol-Chloroform method (Heidel et al., 2013). RNA-seq libraries were generated using SMART-Seq v4 Ultra Low Input RNA Kit (Takara Bio USA Inc., Mountain View, CA, USA) followed by Nextera XT (Illumina, San Diego, CA, USA).
For analysis, 50 bp single-end reads (Illumina) were aligned to reference genome mm10 and gtf.-transcriptome annotation release M7 (GENCODE) using STAR two-pass mode (Dobin et al., 2013).
GENCODE M7 gtf.-file was used for quantification, performed by STAR, followed by normalization, transformation and differential gene expression analysis in DEseq2 (Love et al., 2014). GSEA was carried out on a public server “Gene Pattern” of Broad Institute (Reich et al., 2006). For analysis of the genetic CRISPRCas9 screen, next generation sequencing was performed on an Illumina NextSeq platform (75 bp, single reads) aiming for a minimum of 30Mio reads per sample.
Therefore, it was sought to determine to which extent the inhibition of PSMB8/LMP7 also contributes to the transcriptional regulation of human MLL-target genes. […] This cell line was selected for its sensitivity to PR-957 (FIG. 3D) and ability to be transduced among the MLLr cell lines evaluated above. […]

COc1ccc(C[C@H](NC(=O)[C@H](C)NC(=O)CN2CCOCC2)C(=O)N[C@@H](Cc2ccccc2)C(=O)[C@]2(C)CO2)cc1 [PR-957, (2S)-3-(4-methoxyphenyl)-N-[(2S)-1-[(2S)-2-methyloxiran-2-yl]-1-oxo-3-phenylpropan-2-yl]-2-[[(2S)-2-[(2-morpholin-4-ylacetyl)amino]propanoyl]amino]propanamide]
cell growth in MLLr cell lines [1]: dose-dependent and specific reduction of cell growth
reduction of clonogenic potential, non-MLL fusion oncogene AML1-ETO [2]: not detectable
reduction in LSC frequency compared to diluent treated controls [3]: more than log-fold reduction
LSC frequency ([3]; ELDA, DMSO 1/4550, FIG. 2H,I): 1/57610
cell growth in non-MLLr cell lines [4]: largely unaffected
colony size and shape ([5]; MLL-AF9 transformed leukemia): reduction of colony size and changes in colony shape
clonogenic potential (colony counts) ([5]; nanomolar concentrations (100 nM or 200 nM), serial replating, FIG. 2A): profound dose dependent reduction of clonogenic potential
hematopoietic stem- and progenitor cell abundance ([6]; PR-957 for 3 weeks (10 mg/kg, 5 days/week), FIGS. 2K,L,M): did not show any changes
stem- and progenitor cell chimerism in secondary recipients ([6]; previous PR-957 treatment, FIGS. 2O,P,Q): not affected
peripheral blood chimerism in secondary recipient mice ([6]; until week 16, FIG. 2N): no changes
genes regulated in both cell lines upon treatment (overlap) [7]: 457 genes
